According to patent US11679118B2, “Parasite therapy” (priority 2009, dated 2023):

Columns and labels:
B. hominis [1] = conditions: in Egypt; Rossignol et al 2005; cited from earlier work
[2] = test system: D. fragilis or B. hominis; test: Treatment of patients with D. fragilis and/or B. hominis infection (combined infection), symptoms and overall outcome; assay type: in vivo, Dientamoeba fragilis; Blastocystis hominis; conditions: for stool examination after previous treatments / symptoms after previous treatments: patient, various treatments before referral; for outcome of previous treatments: patient with combined B. hominis and D. fragilis infection, 3 different treatments before referral
Experimental: In another aspect the present invention relates to triple combinations of drugs. In some circumstances, especially with resistance even triple therapies may need to be combined to effect a cure. […] Again, the treatment requires 1 mg-5 grams/day of each of the components from 1-50 days. Other triple combinations can include iodoquinol, furazolidone and nitazoxanide. Combinations can also include diloxinide furoate, doxycycline and metronidazole in various triple combinations.
(§1) The patient was brought into the clinic and after bowel preparation a transcolonoscopic infusion of furazolidone, nitazoxanide and secnidazole was carried out.
The patient was referred to the Clinic for treatment. Symptoms were quite severe and they were given a combination of four medications including Septrin DS (cotrimoxazole) two times a day, diloxanide furoate 500 mg three times a day and secnidazole 400 mg three times a day together with doxycycline 50 mg two times a day.

D. fragilis = test: Treatment of patients with D. fragilis infection, follow-up by stool test; assay type: in vivo, Dientamoeba fragilis; conditions: clinical experience and usage; also frequently ineffective as monotherapy
Experimental: as §1

B. hominis [3] = test: Treatment of patients with B. hominis infection, follow-up by stool test and symptoms; assay type: in vivo, Blastocystis hominis
Giardia lamblia = test: Treatment of a patient with chronic Giardiasis, follow-up by stool tests and symptoms; assay type: in vivo; conditions: previous speculative treatment in adequate doses
Excerpt: A patient with weight loss and diarrhea presented for an endoscopy.

[4] = person, 400 mg bid for 14 days, at 6 months

CC(=O)Oc1ccccc1C(=O)Nc1ncc([N+](=O)[O-])s1 [nitazoxanide]
effectiveness against Blastocystis hominis (B. hominis [1]): effective | stool examination after previous treatments [2]: ongoing B. hominis and D. fragilis | symptoms after previous treatments [2]: improved but then they recurred

CCn1cc(C(=O)O)c(=O)c2cc(F)c(N3CCNCC3)cc21 [norfloxacin]
effectiveness in treatment against Dientamoeba fragilis (D. fragilis): effective | effectiveness in treatment against Blastocystis hominis (B. hominis [3]; clinical experience and usage, also frequently ineffective as monotherapy): effective | stool test for B. hominis (B. hominis [3]; [4]): negative for B. hominis again | symptoms (B. hominis [3]; [4]): still asymptomatic | stool test for B. hominis (B. hominis [3]; person, 400 mg bid for 14 days, follow up at 4 weeks): negative for B. hominis

O=C1OCCN1/N=C/c1ccc([N+](=O)[O-])o1 [furazolidone]
stool examination after previous treatments [2]: ongoing B. hominis and D. fragilis | symptoms after previous treatments [2]: improved but then they recurred

CCS(=O)(=O)CCn1c([N+](=O)[O-])cnc1C [tinidazole]
outcome of previous treatments [2]: failed

Cc1ncc([N+](=O)[O-])n1CCO [metronidazole]
Giardia lamblia infection, histologically at endoscopy (Giardia lamblia): continued to have Giardia lamblia infection | diarrhea (Giardia lamblia): did not settle | outcome of previous therapies (B. hominis [3]; resistant Blastocystis hominis, multiple therapies before referral): failed | outcome of previous treatments [2]: failed | stool examination after previous treatments [2]: ongoing B. hominis and D. fragilis | symptoms after previous treatments [2]: improved but then they recurred
